From PMC4537157 (PLoS ONE, 2015)

Assays:
Format in all cases: cell-based
human newborn cord blood = assay: Whole blood cytokine assay (TNF, IL-1β ELISA), newborn cord blood; settings: 6 h
Experimental: (§1) Assessment of TLRA activity in whole blood was completed as previously described. […] Vehicle (DMSO) was added separately as a control. Suspensions containing 200 μl/well were gently mixed by pipetting and incubating for 6 h at 37°C in a humidified incubator at 5% CO2. After culture, plates were centrifuged at 500 x g and 100–150 μl of supernatant was carefully removed by pipetting without disturbing the cell pellet. Supernatants derived from human leukocyte stimulations were assayed by enzyme-linked immunoabsorbent assay (ELISA) for TNF (BD Biosciences, San Jose, CA, USA) and IL-1β (eBiosciences, San Diego, CA). Experiments were performed in triplicates.
(§2) Compound concentrations are shown in μM. Data are shown as mean ± SEM of n = 6–8.
(§3) Compound concentrations are shown in μM/ml. Cytokine production is shown as pg/ml. (PDF) Click here for additional data file.

[1] = tested on: human adult peripheral blood; assay: Whole blood cytokine assay (TNF, IL-1β ELISA), adult peripheral blood; settings: 6 h
Experimental: as §1, §2, §3

human newborn MoDCs = assay: TNF production by newborn monocyte-derived dendritic cells; settings: human neonatal MoDCs, tested 0.1–10 μM, 24 h
[2] = tested on: human newborn and adult leukocytes; assay: Whole blood and MoDC assays, overall potency as summarised in the discussion; settings: Leukocyte, Tested in both whole blood and MoDC assays
Experimental: as §1

## CCCCc1nc2c(N)nc3ccccc3c2n1Cc1cccc(CN)c1 [Meta-amine]
Human newborn cord blood; 0.01 µM
  IL-1β production: 15.63 pg/mL
  TNF-α production: 79.15 pg/mL
Human newborn cord blood; 0.03 µM
  IL-1β production: 15.63 pg/mL
  TNF-α production: 78.72 pg/mL
Human newborn cord blood; 0.1 µM
  IL-1β production: 15.63 pg/mL
  TNF-α production: 94.65 pg/mL
Human newborn cord blood; 0.3 µM
  IL-1β production: 15.63 pg/mL
  TNF-α production: 93.72 pg/mL
Human newborn cord blood; 1 µM
  IL-1β production: 271.87 pg/mL
  TNF-α production: 1779.40 pg/mL
Human newborn cord blood; 10 µM
  IL-1β production: 6199.29 pg/mL
  TNF-α production: 32214.43 pg/mL
[1]; 0.01 µM
  IL-1β production: 15.63 pg/mL
  TNF-α production: 23.44 pg/mL
[1]; 0.03 µM
  IL-1β production: 15.63 pg/mL
  TNF-α production: 23.44 pg/mL
[1]; 0.1 µM
  IL-1β production: 15.63 pg/mL
  TNF-α production: 20.83 pg/mL
[1]; 0.3 µM
  IL-1β production: 15.63 pg/mL
  TNF-α production: 214.57 pg/mL
[1]; 1 µM
  IL-1β production: 232.86 pg/mL
  TNF-α production: 3739.68 pg/mL
[1]; 10 µM
  IL-1β production: 2699.66 pg/mL
  TNF-α production: 19087.54 pg/mL

## CCCCc1nc2c(N)nc3ccccc3c2n1Cc1ccc(CN)cc1 [Para-amine]
Human newborn cord blood; 0.01 µM
  IL-1β production: 15.63 pg/mL
  TNF-α production: 64.05 pg/mL
Human newborn cord blood; 0.03 µM
  IL-1β production: 15.63 pg/mL
  TNF-α production: 120.31 pg/mL
Human newborn cord blood; 0.1 µM
  IL-1β production: 15.63 pg/mL
  TNF-α production: 70.49 pg/mL
Human newborn cord blood; 0.3 µM
  IL-1β production: 15.63 pg/mL
  TNF-α production: 381.52 pg/mL
Human newborn cord blood; 1 µM
  IL-1β production: 387.41 pg/mL
  TNF-α production: 1780.16 pg/mL
Human newborn cord blood; 10 µM
  IL-1β production: 2820.52 pg/mL
  TNF-α production: 16542.73 pg/mL
[1]; 0.01 µM
  IL-1β production: 15.63 pg/mL
  TNF-α production: 23.44 pg/mL
[1]; 0.03 µM
  IL-1β production: 15.63 pg/mL
  TNF-α production: 121.74 pg/mL
[1]; 0.1 µM
  IL-1β production: 15.63 pg/mL
  TNF-α production: 856.34 pg/mL
[1]; 0.3 µM
  IL-1β production: 15.63 pg/mL
  TNF-α production: 3653.12 pg/mL
[1]; 1 µM
  IL-1β production: 419.70 pg/mL
  TNF-α production: 6740.50 pg/mL
[1]; 10 µM
  IL-1β production: 2008.09 pg/mL
  TNF-α production: 18165.00 pg/mL

## CCOCc1nc2c(N)nc3ccccc3c2n1CC(C)(C)O [R848, resiquimod, reference compound]
Human newborn cord blood; 0.01 µM
  IL-1β production: 15.63 pg/mL
  TNF-α production: 95.80 pg/mL
Human newborn cord blood; 0.03 µM
  IL-1β production: 15.63 pg/mL
  TNF-α production: 84.29 pg/mL
Human newborn cord blood; 0.1 µM
  IL-1β production: 46.36 pg/mL
  TNF-α production: 68.30 pg/mL
Human newborn cord blood; 0.3 µM
  IL-1β production: 15.63 pg/mL
  TNF-α production: 210.98 pg/mL
Human newborn cord blood; 1 µM
  IL-1β production: 415.65 pg/mL
  TNF-α production: 654.85 pg/mL
Human newborn cord blood; 10 µM
  IL-1β production: 322.08 pg/mL
  TNF-α production: 1574.58 pg/mL
[1]; 0.01 µM
  IL-1β production: 15.63 pg/mL
  TNF-α production: 23.44 pg/mL
[1]; 0.03 µM
  IL-1β production: 15.63 pg/mL
  TNF-α production: 23.44 pg/mL
[1]; 0.1 µM
  IL-1β production: 14.94 pg/mL
  TNF-α production: 284.13 pg/mL
[1]; 0.3 µM
  IL-1β production: 15.63 pg/mL
  TNF-α production: 549.52 pg/mL
[1]; 1 µM
  IL-1β production: 191.49 pg/mL
  TNF-α production: 3939.41 pg/mL
[1]; 10 µM
  IL-1β production: 1922.12 pg/mL
  TNF-α production: 19454.73 pg/mL
Human newborn MoDCs
  Concentration inducing TNF: 1 to 10 µM
[2]
  EC50: 1000 nM
